From patent publication US9486507B2, “Pro-coagulant compounds and methods of use thereof” (priority 2011, dated 2016)

Columns and labels:
FIXa [1] = biological target: T1, FIXa (Homo sapiens, UniProt P00740); assay: Km/Kcat of FIXa for the substrate FX (FXa generation assay); assay type: biochemical; set-up: purchased Haematologic Technologies; details: compound 1 3 μM, compounds 3, 4, 5 1 μM, compound C 10 μM; for Km / kcat: hFIXa 10 nM, FX 10-1000 nM, PL, CaCl2; for Δ kcat: relative to buffer (1.0)
Experimental: To determine the Km and Kcat of FIXa or FVIIa for the substrate FX, the FXa generation assay described above was used with the following modifications. […] Reactions were set up with varying concentrations of FX ranging between 400 and 0.8 nM and the rates of FXa generation were determined for each peptide at the different FX concentrations tested as described above. […] The catalytic constant (Kcat) was calculated by normalizing the Vmax to the enzyme concentration.
FIXa was used at 10 nM, and FX was used at 10-1000 nM. The assay was performed in the presence of phospholipids (PL) and calcium chloride.

[2] = biological target: T2, FXa or the prothrombinase complex (Homo sapiens, UniProt P00742); assay: FXa / prothrombinase activity in purified thrombin generation assay; assay type: biochemical; details: 1 μM; FXa 0.05 ug/mL, with or without FV
T2 construct: Under these conditions FIXa cleaves the zymogen FX into the active form FXa
Experimental: In another experiment it was determined whether or not the compounds of the present disclosure directly enhance the activity of FXa or the prothrombinase complex.

[3] = system: purified recombinant human coagulation factors; assay: Thrombin generation assay using purified hemostatic components; assay type: biochemical; details: compounds 1 μM; FVIII 0.1 or 1 IU/mL (FIG. 5)
[4] = biological target: T3, recombinant human factor IXa (hFIXa) (Homo sapiens, UniProt P00740); assay: Hydrogen/deuterium exchange mass spectrometry (H/DX-MS) of hFIXa; assay type: binding; details: hFIXa 1 μM with vs without compound 4 12 μM
T3 construct: purchased Hematologic Technologies
Experimental: Hydrogen/deuterium exchange mass spectrometry (H/DX-MS) was utilized to study the higher-order structural analysis of recombinant human factor IXa (hFIXa) in combination with and without compound 4. The general method can be found in the following references: Engen and Smith (2001) Anal. Chem. 73, 256A-265A.; Wales and Engen (2006) Mass Spectrum. Rev. 25, 158-170.
FIXa samples were equilibrated at ambient temperature (20±1° C.) for 1 hour before labeling with deuterated buffer (reaction buffers described above). The samples were then diluted 1:15 with deuterated buffer and incubated, allowing hydrogen exchange to occur for various amounts of time (10 seconds, 1, 10, 60, and 240 minutes), before the reaction was quenched with a 1:1 dilution of 200 mM citrate, 8 M guanidinium HCl, and 0.5 M TCEP, pH 2.33. Quenched samples were then incubated for 20 seconds before being further diluted 1:1 with 0.1% formic acid and immediately injected into the LC-MS system for analysis.
Approximately 7 μg of exchanged/quenched FIXa was injected onto an immobilized pepsin column where the digestion and peptide trapping were performed for 3 minutes with a flow rate of 0.1 mL/min in 0.1% formic acid at 10° C. […] Mass spectra were acquired and peptic peptides were identified using a combination of exact mass and MS, aided by Waters Identity software (Silva J C et al., 2006. Absolute quantification of proteins by LCMSE: a virtue of parallel MS acquisition. Mol Cell Proteomics, 5(1): p144). […] The amount of deuterium in each peptide was determined by subtracting the mass of the undeuterated peptide from the mass of the deuterated peptide, incubated at various HDX time points (which were uncorrected for any back exchange). […]
The difference in deuterium exchange between FIXa and FIXa with compound 4 was determined by subtracting the mass of each FIXa peptide from the mass of the corresponding FIXa with compound 4. […] The sum of these differences, across all time points, was calculated. […]

FIXa [5] = biological target: T1, FIXa; assay: FXa generation assay with human FIXa; assay type: biochemical; set-up: purchased Haematologic Technologies; details: for Vmax: class symbols
[6] = system: 10% FVIII-deficient human plasma; assay: Modified activated partial thromboplastin time (aPTT*) assay; assay type: biochemical
Experimental: For the activated Partial Thromboplastin Time (aPTT) assay peptides to be tested were first diluted in 10% FVIII-deficient human plasma. For the aPTT* the peptides were diluted in 10% FVIII-deficient human plasma that contained traces of hFIXa (anywhere between 0 and 8.8 nM hFIXa depending on the assay) in Tris/NaCl/BSA buffer. The peptides were incubated for 10 minutes at room temperature and then assayed for clotting on a Sysmex instrument that recorded the clotting time observed for each sample. The times were compared to those of a standard curve derived from standards with known FVIII activity (U/mL) in order to determine the clotting outcome.

mouse FIXa (mFIXa) = mouse FIXa (mFIXa) (Mus musculus, UniProt P16294); assay: FXa generation assay with mouse FIXa; assay type: biochemical; details: mFIXa compared to hFIXa
Excerpt: The data confirms that the peptide was selected for binding to hFIXa.

[7] = system: FVIII deficient human plasma; assay: Thrombin generation assay (TGA) in FVIII-deficient plasma; assay type: biochemical; set-up: key to Thrombin Above Baseline (nM): 1-10 nM (1) or 1-29 nM (2) (+); 11-20 nM (1) or 30-59 nM (2) (++); 21-30 nM (1) or 60-90 nM (2) (+++); >30 nM (1) or >90 nM (2) (++++); At or about baseline (−); details: HRF FVIII-deficient plasma (1)
FIXa [8] = biological target: T1, FIXa; assay: Incubation with FIXa in FXa generation assay buffer, LC-MS; assay type: biochemical; details: compound 3 100 μM; FIXa 0, 10 nM, 1 μM; with or without BSA; 3 hours
Experimental: The mixtures were then analyzed by LC-MS.

FIXa [9] = biological target: T1, FIXa; assay: FXa generation assay with compound 3, phospholipid and Gla-domain dependency; assay type: biochemical; details: compound 3 1 μM
Excerpt: Formation of FXa was monitored using a chromogenic substrate as described in the FXa generation assay directly above (see b.1.).

[10] = system: FVIII deficient human plasma; assay: Rotational thromboelastometry (ROTEM) in FVIII-deficient human plasma; assay type: biochemical; details: for Clotting time, sec (avg.) / α-angle, degrees (avg.): human HemA plasma, lyophilized platelets, 10 fM lipTF
thrombin = thrombin (Homo sapiens, UniProt P00734); details: thrombin 1.4 nM, conjugate A 10 μM, PBS, 37° C.
Experimental: Conjugate A (21 μL, 0.24 mM) in water was added to 476.5 μL PBS. […] The mixture was incubated at 37° C. Aliquots (60 μL) at various time points were quenched with 1 μL of hirudin (10 μM) and injected into the HPLC (C-18 column, CH3CN/H2O, 0 to 70% over 12 minutes, 60° C. 0.5 mL/min, ? =280 nm).

[11] = FXa generation assay, 10 nM hFIXa, 100 nM hFX
[12] = aPTT*, D-amino acid scan of compound 1, listed as WT

RRAPGKLTCLASYCWLFWTGIA [Compound 4]
Km (FIXa [1]): 0.011 ± 0.0027 µM
kcat (FIXa [1]): 0.000285 s⁻¹
Δ kcat (FIXa [1]): 190
catalytic activity of FXa or the prothrombinase complex [2]: did not substantially increase the catalytic activity of FXa or the prothrombinase complex
thrombin generation [3]: induce thrombin generation
FIXa peptide with most important significant difference in H/D exchange [4]: heavy chain peptide 177-185
difference index DI(1) [4]: 2
difference index DI(2) [4]: 0
Vmax (FIXa [5]; [11]): (+++) ((+++)>2)

KLTCLASYCWLF [Compound 1]
Km (FIXa [1]): 0.024 ± 0.0048 µM
kcat (FIXa [1]): 0.00024 s⁻¹
Δ kcat (FIXa [1]): 160
Clotting time ([6]; aPTT* with FIXa, 5 μM): 47.9 s
Clotting time, sec ([6]; aPTT* with FIXa, 5 μM): 47.3; sec
Clotting time ([6]; aPTT* with FIXa, 10 μM): 43.3 s
Clotting time, sec ([6]; aPTT* with FIXa, 10 μM): 44.2; sec
Clotting time ([6]; aPTT* with FIXa, 20 μM): 43.8 s
Clotting time, sec ([6]; aPTT* with FIXa, 20 μM): 43.5; sec
Clotting time [6, 12]: 47.8 s
Clotting time, sec [6, 12]: 47.9; sec
Clotting time ([6]; aPTT*, FIXa 1 nM): 107.4 s
Clotting time, sec ([6]; aPTT*, FIXa 1 nM): 105.8; sec
Clotting time ([6]; aPTT*, FIXa 2 nM): 82.8 s
Clotting time, sec ([6]; aPTT*, FIXa 2 nM): 84.4; sec
Clotting time ([6]; aPTT*, FIXa 4 nM): 50.6 s
Clotting time, sec ([6]; aPTT*, FIXa 4 nM): 50.9; sec
Clotting time ([6]; aPTT*, FIXa 8 nM): 40.6 s
Clotting time, sec ([6]; aPTT*, FIXa 8 nM): 40.1; sec
Vmax (FIXa [5]; [11]): (+++) ((+++)>2)
Vmax (mOD/min min) (FIXa [5]; PL: No): 2.60 mOD/min min
Vmax (mOD/min min) (FIXa [5]; PL: Yes): 3.98 mOD/min min
Vmax (mouse FIXa (mFIXa)): greatly reduced
Thrombin Above Baseline (nM) ([7]; 2.5 μM): −
Thrombin Above Baseline (nM) ([7]; 5 μM): −
Thrombin Above Baseline (nM) ([7]; 10 μM): −
Thrombin Above Baseline (nM) ([7]; 20 μM): −

RRAPGKLQCLASYCWLFWTGIA [Compound 3]
substrate for FIXa (LC-MS) (FIXa [8]): not a substrate for FIXa
Km (FIXa [1]): 0.016 ± 0.0035 µM
kcat (FIXa [1]): 0.000295 s⁻¹
Δ kcat (FIXa [1]): 197
Clotting time ([6]; aPTT*, exogenous hFIXa 0.5 nM): 115.2 s
Clotting time, sec ([6]; aPTT*, exogenous hFIXa 0.5 nM): 115.6; sec
Clotting time ([6]; aPTT*, exogenous hFIXa 8.8 nM): 41.9 s
Clotting time, sec ([6]; aPTT*, exogenous hFIXa 8.8 nM): 45.4; sec
Percentage of control (FXa generation) (FIXa [9]; +PL): 100%
Percentage of control (FXa generation) (FIXa [9]; +PL +anti-FIX IgG (Gla)): 58.0%
Percentage of control (FXa generation) (FIXa [9]; −PL): 90%
Vmax (FIXa [5]; FXa generation assay using human FIXa): (++++) ((++++)>3)
Vmax (mOD/min min) (FIXa [5]; PL: No): 2.77 mOD/min min
Vmax (mOD/min min) (FIXa [5]; PL: Yes): 3.90 mOD/min min
clotting time and α-angle with neutralizing anti-FVIII antibody ([10]; 10 uM, polyclonal sheep IgG against human FVIII, 1:100): independent of residual FVIII
clotting time compared with FVIII (100% FVIII = 1 IU/mL) ([10]; compound 3 at 5 μM, faster than): > 100 % FVIII
α-angle corresponding to FVIII ([10]; compound 3 at 10 μM): about 20 % FVIII
Clotting time, sec (avg.) ([10]; 0.625 μM): 792 s
α-angle, degrees (avg.) ([10]; 0.625 μM): 29 degrees
Clotting time, sec (avg.) ([10]; 2.5 μM): 452 s
α-angle, degrees (avg.) ([10]; 2.5 μM): 33 degrees
Clotting time, sec (avg.) ([10]; 5 μM): 329 s
α-angle, degrees (avg.) ([10]; 5 μM): 38 degrees
Clotting time, sec (avg.) ([10]; 10 μM): 205 s
α-angle, degrees (avg.) ([10]; 10 μM): 51 degrees

Cys(Acm)-Gly-Gly-Gly-Gly-Dphe-Pip-Arg-PABC-rRAPGKLTCLASYCWLFWTGIA-NH2 (Disulfide) [conjugate A]
incubation time to full cleavage by thrombin (thrombin): about 60 min
